Reference: PMC10108266, “Pharmacokinetic characteristics of golidocitinib, a highly selective JAK1 inhibitor, in healthy adult participants” (Frontiers in Immunology, 2023)
Like-named read-outs stand apart in the source and are kept apart here.

Columns and labels:
[1] = JACKPOT2 single-ascending-dose plasma PK, healthy participants in USA; type: in vivo, human; settings: for Cmax / Tmax / AUC(0-inf) / Vd/F / half-life: human, plasma; for Cmax / AUC(0-inf): geometric mean (CV%)
Text: This was a Phase I, randomized, double-blinded, placebo-controlled study to assess the safety, tolerability, and PK of golidocitinib in healthy participants in the USA. This study included two parts: part A (single-ascending-dose [SAD] and food effect [FE] cohorts) and part B (multiple-ascending-dose [MAD] cohorts). Please refer to Figure 1 for the study flowchart.
A total of 42 and 24 healthy participants were enrolled in part A and part B, respectively. In part A, a total of 30 participants were randomized into 5 SAD cohorts (n = 6 per cohort) and received a single dose of golidocitinib at different dose levels or a matching placebo in a 4:2 ratio. In the food effect cohort, a total of 12 participants were enrolled and received the study drug under fasted or fed conditions, with a sequential design. The 50 mg dose was selected based on available safety data after the completion of the SAD cohorts, and also on the outcomes from PK/PD modeling for potential efficacious dose for autoimmune disease. On Day 1, participants took a single dose of golidocitinib under fast condition. After a 14-day wash-out period, on Day 15, participants received another single dose of golidocitinib immediately after a standard high-fat meal. Food recipes and contents are consistent with that described in FDA Guidance for Food-Effect Bioavailability studies ([10]). For the fed condition, keeping fasted for at least 10 hours, participants started ingestion of high-fat meal 30 minutes prior to administration of golidocitinib. They had to finish the meal within 30 minutes or less, and no food was allowed for at least 4 hours post-dose. In part B, a total of 24 participants were randomized into 3 MAD cohorts, with 8 in each cohort (active:placebo = 6:2). In these cohorts, participants received golidocitinib at different dose levels or placebo once daily dosing for 14 days. Dose escalation was based on available PK and safety data in the previous cohorts.
In the SAD cohorts, serial blood samples were obtained on Day 1 at pre-dose, and at 0.5, 1, 1.5, 2, 3, 4, 6, 10, 14, 24 (Day 2), 48 (Day 3), 72 (Day 4), 120 (Day 6), 168 (Day 8) and 216 (Day 10) hours post-dose for plasma PK analysis. A similar sampling schedule was undertaken for the MAD cohorts on Day 1 and Day 14, with additional trough samples obtained on Days 5, Day 8, and Day 11. In the MAD cohorts, urine samples were collected on Day 14 during the collection intervals of 0-4, 4-10, and 10-24 hours following the last dose for urine PK analysis. Plasma and urine samples were analyzed by Frontage Laboratories Inc. (New Jersey, USA) using a validated LC/MS/MS bioanalytical method to determine golidocitinib concentrations. Cross validation in plasma was successful between Frontage Laboratories Inc. (New Jersey, USA) and Frontage Laboratories Inc. (Shanghai) using clinical samples and spiked quality control samples.
Non-compartmental PK analysis for golidocitinib concentrations was performed using Phoenix WinNonlin (Certara USA Inc., version 8.1).
Dose proportionality was concluded if the 90% confidence interval for the ratio of dose-normalized, geometric mean values (Rdnm) was contained completely within the range of 0.8 - 1.25 ([11], [12]).

[2] = Pooled JACKPOT2/JACKPOT3 SAD analysis of the effect of race on PK; type: in vivo, human; settings: for Dose normalized AUC0-inf, GLS Mean / Dose normalized AUC0-t, GLS Mean / Dose normalized Cmax, GLS Mean: ANCOVA; for Vd/F / half-life: human, plasma, oral
Experimental: Assessment of inter-ethnic difference of golidocitinib PK: The primary analyses of AUC0–t, AUC0–inf, and Cmax (log-transformed dose-normalized PK parameters) were performed using an analysis of covariance (ANCOVA) model, with the ethnic group as a fixed effect and dose (log scale) as a covariate. The analysis of variance (ANOVA) model was built for the secondary PK endpoints (log-transformed CL/F, Vz/F, and t1/2) with the ethnic group as a fixed effect. The Black/Caucasian and Asian/Caucasian ratios of the geometric mean were calculated by taking the antilogarithm of the difference between group means and corresponding 90% confidence intervals (CIs) in the log scale. Other analyses are descriptive, and no formal statistical comparison is performed for pooled JACKPOT2 and JACKPOT3 data. As the study design of SAD cohorts in JACKPOT2 and JACKPOT3 studies was similar, pooled analysis was performed. The race factor is the focus potentially used for the exposure comparison. A total of 62 participants were included in the analysis (11 Caucasians, 19 Blacks and 32 Asians).

JAK1 = tested on: JAK1; parameters: method as in PMID 32297743; settings: ref [9]; cited from earlier work

Compound: COc1nn(C)cc1Nc1nccc(-c2c[nH]c3c(NC(=O)[C@@H](C)N4CCN(C)CC4)cccc23)n1 [golidocitinib, (2R)-N-[3-[2-[(3-Methoxy-1-methyl-pyrazol-4-yl)amino]pyrimidin-4-yl]-1H-indol-7-yl]-2-(4-methylpiperazin-1-yl)propenamide]
- Cmax ([1]; oral, single dose 5 mg): 5.14 ng/mL
- Tmax ([1]; oral, single dose 5 mg, median (min, max), read-out: tmax): 8 h
- AUC(0-inf) ([1]; oral, single dose 20 mg): 923 ng·h/mL
- Cmax ([1]; oral, single dose 20 mg): 18.6 ng/mL
- Vd/F ([1]; oral, single dose 20 mg, mean (SD), read-out: Vz/F): 1540 L
- half-life ([1]; oral, single dose 20 mg, median (min, max), read-out: t1/2 (converted)): 51.3 h
- Tmax ([1]; oral, single dose 20 mg, median (min, max), read-out: tmax): 8 h
- AUC(0-inf) ([1]; oral, single dose 50 mg): 2340 ng·h/mL
- Cmax ([1]; oral, single dose 50 mg): 48.5 ng/mL
- Vd/F ([1]; oral, single dose 50 mg, mean (SD), read-out: Vz/F): 1420 L
- half-life ([1]; oral, single dose 50 mg, median (min, max), read-out: t1/2 (converted)): 42.8 h
- Tmax ([1]; oral, single dose 50 mg, median (min, max), read-out: tmax): 6 h
- AUC(0-inf) ([1]; oral, single dose 100 mg): 5260 ng·h/mL
- Cmax ([1]; oral, single dose 100 mg): 133 ng/mL
- Vd/F ([1]; oral, single dose 100 mg, mean (SD), read-out: Vz/F): 1380 L
- half-life ([1]; oral, single dose 100 mg, median (min, max), read-out: t1/2 (converted)): 50.4 h
- Tmax ([1]; oral, single dose 100 mg, median (min, max), read-out: tmax): 2.5 h
- AUC(0-inf) ([1]; oral, single dose 150 mg): 7260 ng·h/mL
- Cmax ([1]; oral, single dose 150 mg): 232 ng/mL
- Vd/F ([1]; oral, single dose 150 mg, mean (SD), read-out: Vz/F): 1400 L
- half-life ([1]; oral, single dose 150 mg, median (min, max), read-out: t1/2 (converted)): 46.6 h
- Tmax ([1]; oral, single dose 150 mg, median (min, max), read-out: tmax): 3 h
- Vd/F ([1]; single oral administration, US participants, read-out: mean Vz/F): 1380 to 1540 L
- half-life ([1]; single oral administration, across the dose range, US participants, read-out: median terminal half-life (t1/2)): 42.8 to 51.3 h
- Tmax ([1]; single oral administration, across the dose range, US participants, read-out: median tmax): 2.5 to 8 h
- CL/F ([1]; single dose 20 mg, mean (SD)): 21.7 (1.18) L/hr
- CL/F ([1]; single dose 50 mg, mean (SD)): 22.1 (6.20) L/hr
- CL/F ([1]; single dose 100 mg, mean (SD)): 19.2 (3.09) L/hr
- CL/F ([1]; single dose 150 mg, mean (SD)): 21.9 (8.58) L/hr
- CL/F, Geometric Mean (CV%) ([2]; Asian, n 24, single dose): 20.07 (21.59) L/hr
- Dose normalized AUC0-inf, Geometric Mean (CV%) ([2]; Asian, n 24, single dose): 49.82 (21.63) hr*ng/mL/mg
- Dose normalized AUC0-t, Geometric Mean (CV%) ([2]; Asian, n 24, single dose): 48.15 (23.34) hr*ng/mL/mg
- Dose normalized Cmax, Geometric Mean (CV%) ([2]; Asian, n 24, single dose): 1.70 (24.14) ng/mL/mg
- Dose normalized AUC0-inf, GLS Mean ([2]; Asian, single dose): 49.76 ng·h/mL/mg
- Dose normalized AUC0-t, GLS Mean ([2]; Asian, single dose): 47.50 ng·h/mL/mg
- Dose normalized Cmax, GLS Mean ([2]; Asian, single dose): 1.66 ng/mL/mg
- CL/F, GLS Mean ([2]; Asian, single dose, ANOVA): 20.07 L/h
- CL/F, Ratio of GLS means ([2]; Asian/Caucasian): 0.88
- Dose normalized AUC0-inf, Ratio of GLS means ([2]; Asian/Caucasian): 1.2
- Dose normalized AUC0-t, Ratio of GLS means ([2]; Asian/Caucasian): 1.1
- Dose normalized Cmax, Ratio of GLS means ([2]; Asian/Caucasian): 1.4
- Vz/F, Ratio of GLS means ([2]; Asian/Caucasian): 0.76
- t1/2, Ratio of GLS means ([2]; Asian/Caucasian): 0.87
- Dose normalized AUC0-inf, Geometric Mean (CV%) ([2]; Black, n 10 (5 mg group not included), single dose): 51.54 (22.55) hr*ng/mL/mg
- CL/F, Geometric Mean (CV%) ([2]; Black, n 10, single dose): 19.40 (22.55) L/hr
- Dose normalized AUC0-t, Geometric Mean (CV%) ([2]; Black, n 13, single dose): 46.51 (23.98) hr*ng/mL/mg
- Dose normalized Cmax, Geometric Mean (CV%) ([2]; Black, n 13, single dose): 1.12 (26.07) ng/mL/mg
- Dose normalized AUC0-inf, GLS Mean ([2]; Black, single dose): 52.05 ng·h/mL/mg
- Dose normalized AUC0-t, GLS Mean ([2]; Black, single dose): 47.72 ng·h/mL/mg
- Dose normalized Cmax, GLS Mean ([2]; Black, single dose): 1.19 ng/mL/mg
- CL/F, GLS Mean ([2]; Black, single dose, ANOVA): 19.40 L/h
- CL/F, Ratio of GLS means ([2]; Black/Caucasian): 0.85
- Dose normalized AUC0-inf, Ratio of GLS means ([2]; Black/Caucasian): 1.2
- Dose normalized AUC0-t, Ratio of GLS means ([2]; Black/Caucasian): 1.1
- Dose normalized Cmax, Ratio of GLS means ([2]; Black/Caucasian): 1.0
- Vz/F, Ratio of GLS means ([2]; Black/Caucasian): 1.1
- t1/2, Ratio of GLS means ([2]; Black/Caucasian): 1.3
- Dose normalized AUC0-inf, Geometric Mean (CV%) ([2]; Caucasian, n 6 (5 mg group not included), single dose): 43.62 (23.48) hr*ng/mL/mg
- CL/F, Geometric Mean (CV%) ([2]; Caucasian, n 6, single dose): 22.92 (23.48) L/hr
- Dose normalized AUC0-t, Geometric Mean (CV%) ([2]; Caucasian, n 7, single dose): 42.59 (28.57) hr*ng/mL/mg
- Dose normalized Cmax, Geometric Mean (CV%) ([2]; Caucasian, n 7, single dose): 1.17 (30.17) ng/mL/mg
- Dose normalized AUC0-inf, GLS Mean ([2]; Caucasian, single dose): 43.13 ng·h/mL/mg
- Dose normalized AUC0-t, GLS Mean ([2]; Caucasian, single dose): 42.52 ng·h/mL/mg
- Dose normalized Cmax, GLS Mean ([2]; Caucasian, single dose): 1.16 ng/mL/mg
- CL/F, GLS Mean ([2]; Caucasian, single dose, ANOVA): 22.92 L/h
- Vd/F ([2]; Asian, n 24, single dose, read-out: Vz/F, Geometric Mean (CV%)): 1020 L
- half-life ([2]; Asian, n 24, single dose, read-out: t1/2, Geometric Mean (CV%) (converted)): 35.4 h
- Vd/F ([2]; Asian, single dose, ANOVA, read-out: Vz/F, GLS Mean): 1020 L
- half-life ([2]; Asian, single dose, ANOVA, read-out: t1/2, GLS Mean (converted)): 35.4 h
- Vd/F ([2]; Black, n 10, single dose, read-out: Vz/F, Geometric Mean (CV%)): 1420 L
- half-life ([2]; Black, n 10, single dose, read-out: t1/2, Geometric Mean (CV%) (converted)): 50.9 h
- Vd/F ([2]; Black, single dose, ANOVA, read-out: Vz/F, GLS Mean): 1420 L
- half-life ([2]; Black, single dose, ANOVA, read-out: t1/2, GLS Mean (converted)): 50.9 h
- Vd/F ([2]; Caucasian, n 6, single dose, read-out: Vz/F, Geometric Mean (CV%)): 1350 L
- half-life ([2]; Caucasian, n 6, single dose, read-out: t1/2, Geometric Mean (CV%) (converted)): 40.8 h
- Vd/F ([2]; Caucasian, single dose, ANOVA, read-out: Vz/F, GLS Mean): 1350 L
- half-life ([2]; Caucasian, single dose, ANOVA, read-out: t1/2, GLS Mean (converted)): 40.8 h
- selectivity to JAK1 over other JAK family kinases (JAK1): greater than 200 folds
